Assay results from patent US20210169953A1, “COMPOSITION FOR TYPE IV ALLERGY” (SONE FARM CO., LTD, priority 2018, published 2021).
Several values for one entry are separate records, joined by “and”; a condition that tells them apart may be missing. Identical values can stand only once.

Test system: picryl chloride-induced mouse contact dermatitis model
Experiment: Suppression action on mouse contact dermatitis model by application on the auricle (auricle thickness)
Format: in vivo, mouse (male BALB/cA Jcl)
Method: From the supernatant of a culture broth obtained by cultivating the strain IJH-SONE68 in modified-SDM medium, exopolysaccharides produced by the strain were purified by the method disclosed in Example 2 to be supplied to experiments (1 mg/mL). The same concentration was used for a dipotassium glycyrrhizinate aqueous solution used as a control of an existing anti-inflammatory drug.
The mice used were male BALB/cA Jcl mice (7-week old at the time of arrival, CLEA Japan, Inc.). Five mice were housed in a breeding cage and bred in an animal breeding room in which environment was adjusted to temperature of 20 to 26° C., humidity of 40 to 60%, and lighting time of 12 hours (8:00 to 20:00). The mice were allowed to freely ingest solid feed MF (Oriental Yeast Co., Ltd.). In addition, with regard to a drinking water, the mice were allowed to freely ingest a purified water.
After carried in the cage, the mice were acclimated for 7 days. […]
On Day 6, the thickness of right auricle of the mice was measured in advance with a caliper, and then an allergic reaction was induced by applying 20 μL of a 1 w/v % picryl chloride solution on the front and back of the right auricle. […] Eighteen hours later (Day 7), the thickness of the auricle was measured, and the difference before and after the induction (A auricle thickness [mm]) was compared among the groups. […] Tukey's test or t test by Welch's method was used for a significant difference test among the groups, and it was determined that there was a significant difference when a risk factor (p value) was less than 0.05.

CC1(C)[C@@H](O[C@H]2O[C@H](C(=O)[O-])[C@@H](O)[C@H](O)[C@H]2O[C@@H]2O[C@H](C(=O)[O-])[C@@H](O)[C@H](O)[C@H]2O)CC[C@]2(C)[C@H]3C(=O)C=C4[C@@H]5C[C@@](C)(C(=O)O)CC[C@]5(C)CC[C@@]4(C)[C@]3(C)CC[C@@H]12.[K+].[K+] [dipotassium glycyrrhizinate]
Increase in auricle thickness due to inflammation vs control group (FIG. 7, Tukey test) (application, p<0.1): tended to be suppressed
Increased amount of auricle thickness, Average (group average, 20 μL of 1 mg/mL sample applied on right auricle 2 h after induction, measured 18 h later, control 0.28): 0.184 mm
Increased amount of auricle thickness, each mouse (individual mice, 20 μL of 1 mg/mL sample applied on right auricle 2 h after induction, measured 18 h later): 0.20 mm and 0.06 mm and 0.22 mm (3×)
